# Earlier results, collected in US20250152537A1, “COMPOSITIONS AND METHODS FOR THE TREATMENT OF HUMAN IMMUNODEFICIENCY VIRUS” (PROTHIONE LLC, priority 2022, published 2025).
# Conditions: not told
structure (smiles),measurement,value
"N[C@@H](CCC(=O)N[C@@H](CS)C(=O)NCC(=O)O)C(=O)O [GSH, glutathione]",membrane permeability,membrane-impermeable
